The results in this text go back to PubChem BioAssay (NCI).

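These data come from cells grown in 96-well plates and exposed to compound for 48 hours at five concentrations. GI50 = concentration required for 50% inhibition of growth. TGI marks complete inhibition of growth.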

Among the test systems are K-562 leukemia; MDA-MB-435; SW-620 colon; OVCAR-4 ovarian; UACC-257 melanoma; KM12 colon; SK-MEL-5 melanoma; SK-MEL-2 melanoma.
Holding throughout (test): NCI tumour cell line growth inhibition, 48 h

As to `COc1ccc(C2=NN(C(=O)c3cc(OC)c(OC)c(OC)c3)C(c3ccc(N(C)C)cc3)C2)cc1` (configuration not stated), the GI50 in the assay on K-562 leukemia was 0.551 µM; with MDA-MB-435 it was 0.205 µM; in the assay with SW-620 colon, 0.427 µM; in the assay on OVCAR-4 ovarian, 0.548 µM; in the assay on UACC-257 melanoma it was 97.6 µM; with KM12 colon, 0.46 µM. In addition, the values for the GI50 with SK-MEL-5 melanoma and with SK-MEL-2 melanoma were 0.424 µM and 83.5 µM, respectively. Besides, the TGI with K-562 leukemia is more than 100 µM; in the assay on MDA-MB-435 it was 0.478 µM; in the assay on SW-620 colon, more than 100 µM; with OVCAR-4 ovarian it was more than 100 µM; in the assay with UACC-257 melanoma it was more than 100 µM; in the assay on KM12 colon, more than 100 µM. The values for the TGI in the assay with SK-MEL-5 melanoma and in the assay on SK-MEL-2 melanoma were 4.88 µM and more than 100 µM, respectively.

Regarding `N#C[Se]CCCNS(=O)(=O)C1CC2C=CC1C2` (configuration not stated), the GI50 with K-562 leukemia was 1.78 µM; in the assay on MDA-MB-435, 0.361 µM; in the assay on SW-620 colon, 1.79 µM; with OVCAR-4 ovarian, 1.48 µM; in the assay on UACC-257 melanoma, 0.648 µM; in the assay on KM12 colon, 1.4 µM. Also, the GI50 was 1.41 µM with SK-MEL-5 melanoma and 2 µM in the assay with SK-MEL-2 melanoma. The TGI with K-562 leukemia was more than 41.6 µM; with MDA-MB-435, 1.31 µM; in the assay on SW-620 colon, 5.56 µM; in the assay on OVCAR-4 ovarian, 8.57 µM; in the assay with UACC-257 melanoma, 3.09 µM; in the assay on KM12 colon it was 6.43 µM. Further, the TGI in the assay with SK-MEL-5 melanoma amounted to 2.95 µM; in the assay on SK-MEL-2 melanoma it was 6.15 µM.

`O=C(O)c1ccc(C(=O)O)c(C(=O)Nc2ccc3c(c2)C(=O)c2ccccc2-3)c1`: the TGI in the assay on K-562 leukemia, with MDA-MB-435, in the assay on SW-620 colon, with OVCAR-4 ovarian, in the assay with UACC-257 melanoma and with KM12 colon was more than 100 µM each time. In addition, the TGI in the assay on SK-MEL-5 melanoma and in the assay with SK-MEL-2 melanoma was more than 100 µM in each case.

As to `CC(C)(C)c1c2c(c(C(C)(C)C)c3c1OCN(Cc1ccccc1)C3)OCN(Cc1ccccc1)C2`, the TGI in the assay on K-562 leukemia was 54.5 µM; with MDA-MB-435, more than 100 µM; in the assay on SW-620 colon, more than 100 µM; in the assay on OVCAR-4 ovarian, more than 100 µM; with UACC-257 melanoma it was 29.1 µM; with KM12 colon, 57.8 µM. In addition, the TGI in the assay on SK-MEL-5 melanoma is 21 µM; with SK-MEL-2 melanoma, 51.5 µM.

With `O=C(c1ccco1)c1c(C(F)(F)F)n([O-])c2ccc(Cl)cc2[n+]1=O`, the GI50 in the assay on K-562 leukemia is 0.116 µM; with MDA-MB-435, 1.9 µM; in the assay with SW-620 colon, 0.22 µM; with OVCAR-4 ovarian, 1.55 µM; with UACC-257 melanoma it was 1.31 µM; in the assay with KM12 colon it was 1.93 µM. In addition, the GI50 in the assay on SK-MEL-5 melanoma was 0.538 µM; with SK-MEL-2 melanoma, 1.76 µM. The TGI with K-562 leukemia was 5.1 µM; with MDA-MB-435, 7.66 µM; with SW-620 colon, 1.18 µM; with OVCAR-4 ovarian, 5.73 µM; in the assay with UACC-257 melanoma, 3.08 µM; in the assay with KM12 colon, 4.13 µM. The TGI in the assay on SK-MEL-5 melanoma is 1.64 µM; in the assay with SK-MEL-2 melanoma, 9.78 µM.

Take `O=C1c2cccc(NCCN=Cc3ccccc3O)c2C(=O)c2c(NCCN=Cc3ccccc3O)cccc21`: the GI50 with K-562 leukemia was 0.406 µM; in the assay with MDA-MB-435, 1.16 µM; in the assay with SW-620 colon it was 0.258 µM; in the assay on UACC-257 melanoma, 1.44 µM; in the assay on KM12 colon it was 0.353 µM; in the assay with SK-MEL-5 melanoma, 1.55 µM. Besides, the GI50 in the assay with SK-MEL-2 melanoma was 1.2 µM. For the same compound, the TGI stood at 5.14 µM in the assay on K-562 leukemia; 2.87 µM in the assay with MDA-MB-435; 1.38 µM in the assay with SW-620 colon; 2.39 µM in the assay with OVCAR-4 ovarian; 4.3 µM in the assay on UACC-257 melanoma; 1.44 µM in the assay with KM12 colon. In addition, the TGI is 4.03 µM in the assay on SK-MEL-5 melanoma and 3.67 µM in the assay on SK-MEL-2 melanoma.

With `O=C(Nc1n[nH]c2nnc(-c3cccnc3)cc12)C1CC1`, the GI50 is 1.74 µM with K-562 leukemia; more than 11.3 µM in the assay on MDA-MB-435; 8.97 µM in the assay with SW-620 colon; 7.66 µM in the assay on OVCAR-4 ovarian; more than 17.4 µM in the assay on UACC-257 melanoma; 5.22 µM in the assay with KM12 colon. The GI50 is 4.61 µM in the assay with SK-MEL-5 melanoma and 21.8 µM with SK-MEL-2 melanoma. Also, the TGI was more than 25 µM in the assay on K-562 leukemia; more than 25 µM with MDA-MB-435; more than 25 µM in the assay on SW-620 colon; more than 25 µM with OVCAR-4 ovarian; more than 25 µM in the assay on UACC-257 melanoma; more than 20.1 µM in the assay with KM12 colon. The TGI in the assay with SK-MEL-5 melanoma and in the assay with SK-MEL-2 melanoma was more than 25 µM each time.

Take `O=c1oc2ccc(Br)cc2c(=O)n1-c1ccc(I)cc1F`: the GI50 in the assay on K-562 leukemia was 0.389 µM; with MDA-MB-435 it was 0.409 µM; with SW-620 colon, 0.479 µM; with OVCAR-4 ovarian, 0.389 µM; with UACC-257 melanoma, 0.328 µM; in the assay with KM12 colon it was 1.66 µM. In addition, the values for the GI50 with SK-MEL-5 melanoma and with SK-MEL-2 melanoma were 0.246 µM and 0.252 µM, respectively. For the same compound, the TGI is more than 100 µM in the assay on K-562 leukemia; 3.82 µM with MDA-MB-435; 10.5 µM in the assay on SW-620 colon; 13.7 µM in the assay with OVCAR-4 ovarian; 1.91 µM in the assay with UACC-257 melanoma; 4.37 µM with KM12 colon. Also, the figures for the TGI in the assay on SK-MEL-5 melanoma and in the assay on SK-MEL-2 melanoma were 0.642 µM and 0.791 µM, respectively.

Regarding `O=C(Nc1ccccc1)c1cc(S(=O)(=O)Nc2nc3ccccc3o2)c(SCc2ccccc2)cc1Cl`, the GI50 with K-562 leukemia is 20.5 µM; in the assay with MDA-MB-435, 19 µM; in the assay on SW-620 colon, 17.1 µM; in the assay on OVCAR-4 ovarian, 33.8 µM; with UACC-257 melanoma, 19.6 µM; in the assay on KM12 colon, 16.7 µM. The GI50 was 14.1 µM in the assay on SK-MEL-5 melanoma and 23.6 µM in the assay with SK-MEL-2 melanoma. The TGI in the assay with K-562 leukemia was 68.7 µM; in the assay with MDA-MB-435 it was 37.7 µM; in the assay on SW-620 colon, 37.7 µM; in the assay on OVCAR-4 ovarian, more than 100 µM; in the assay with UACC-257 melanoma, 38.6 µM; in the assay on KM12 colon, 32.6 µM. Moreover, the TGI with SK-MEL-5 melanoma amounted to 28 µM; in the assay with SK-MEL-2 melanoma, 57.3 µM.
